According to patent publication US20230145835A1, “Modulators of Alpha-4-beta-7 Integrin and MAdCAM” (48HD Biopharma Inc., priority 2021, published 2023):
pIC50: −log10 of the molar value. Numbered stars: 1 amine (or outer) side, 2 acyl side, 3 side chain; on linkers, the order of the positions; unused ones are H or OH. Bridge positions count the residues as written; N and C are the ends. Square brackets hold non-standard residues; d marks the D form. Peptide text beside a SMILES is read from it. I, II: the chains in the order shown. CO(CH2CH2O)5CH2CH2CO = O=C(CCOCCOCCOCCOCCOCCC(=O)[*:2])[*:1]; X8 = O=C(/C=N/O/C=C/CCCCOc1cc(C[*:2])cc(C[*:3])c1)[*:1]; X3 = O=C(/C=N/OCCCCCCOc1cc(C[*:2])cc(C[*:3])c1)[*:1]; X1 = O=C(C=NOCCCCCCOc1cc(C[*:2])cc(C[*:3])c1)[*:1]; X5 = O=C(CCCCCCOc1cc(C[*:2])cc(C[*:3])c1)[*:1]; X4 = N=C(N)NCCC[C@@H](CN[*:1])C(=O)[*:2]; Cba = N[C@@H](CC1CCC1)C(=O)O; Nle = CCCC[C@H](N)C(=O)O

Biological target: T1, rh-integrin α4β7/LPAM-1 (Homo sapiens, UniProt P13612+P26010)
T1 sequence (P13612 34-977 limits assumed): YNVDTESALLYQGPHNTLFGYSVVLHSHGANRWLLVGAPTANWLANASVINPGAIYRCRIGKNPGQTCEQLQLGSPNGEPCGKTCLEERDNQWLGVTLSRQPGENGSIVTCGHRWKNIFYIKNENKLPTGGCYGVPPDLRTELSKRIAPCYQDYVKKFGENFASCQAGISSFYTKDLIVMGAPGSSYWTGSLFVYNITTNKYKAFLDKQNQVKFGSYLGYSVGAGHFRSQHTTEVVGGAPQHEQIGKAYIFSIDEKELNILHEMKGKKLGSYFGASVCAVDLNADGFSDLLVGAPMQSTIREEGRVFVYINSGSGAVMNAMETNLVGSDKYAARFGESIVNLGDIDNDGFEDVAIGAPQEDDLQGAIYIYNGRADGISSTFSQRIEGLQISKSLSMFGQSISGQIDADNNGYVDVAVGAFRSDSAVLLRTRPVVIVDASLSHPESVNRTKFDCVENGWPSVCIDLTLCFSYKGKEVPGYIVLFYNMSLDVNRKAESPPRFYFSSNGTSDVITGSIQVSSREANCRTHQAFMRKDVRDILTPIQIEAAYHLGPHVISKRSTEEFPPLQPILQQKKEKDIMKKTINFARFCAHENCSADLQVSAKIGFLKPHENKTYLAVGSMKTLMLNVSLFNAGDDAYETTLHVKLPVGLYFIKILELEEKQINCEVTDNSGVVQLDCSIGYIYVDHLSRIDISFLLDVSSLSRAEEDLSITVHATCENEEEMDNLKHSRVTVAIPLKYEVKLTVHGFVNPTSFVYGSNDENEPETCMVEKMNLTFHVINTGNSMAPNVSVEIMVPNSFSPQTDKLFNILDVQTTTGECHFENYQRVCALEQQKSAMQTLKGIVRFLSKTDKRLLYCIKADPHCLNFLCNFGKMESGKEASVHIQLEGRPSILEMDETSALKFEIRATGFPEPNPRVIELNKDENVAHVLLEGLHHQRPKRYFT
T1 sequence (P26010 20-723 limits assumed): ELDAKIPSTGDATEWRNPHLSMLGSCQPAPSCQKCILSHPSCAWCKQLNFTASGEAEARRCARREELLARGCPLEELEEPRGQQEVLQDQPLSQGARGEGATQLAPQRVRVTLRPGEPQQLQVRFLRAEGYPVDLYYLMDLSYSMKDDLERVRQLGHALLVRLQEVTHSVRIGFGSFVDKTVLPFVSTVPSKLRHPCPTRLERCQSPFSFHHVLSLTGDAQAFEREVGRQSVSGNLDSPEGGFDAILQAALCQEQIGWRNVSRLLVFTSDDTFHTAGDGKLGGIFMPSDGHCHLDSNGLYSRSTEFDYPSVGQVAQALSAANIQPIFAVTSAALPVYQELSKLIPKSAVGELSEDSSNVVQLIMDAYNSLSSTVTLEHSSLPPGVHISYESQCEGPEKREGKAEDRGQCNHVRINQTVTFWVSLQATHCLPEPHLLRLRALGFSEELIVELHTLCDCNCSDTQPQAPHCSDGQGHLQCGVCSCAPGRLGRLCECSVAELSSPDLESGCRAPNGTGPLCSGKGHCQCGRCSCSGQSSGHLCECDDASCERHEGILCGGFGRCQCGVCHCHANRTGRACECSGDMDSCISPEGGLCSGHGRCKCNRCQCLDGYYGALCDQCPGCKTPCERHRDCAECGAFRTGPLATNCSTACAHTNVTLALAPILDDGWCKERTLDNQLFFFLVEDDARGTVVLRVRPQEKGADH
Assay: α4β7-MadCAM Competition ELISA (Example 4)
Assay type: binding
Details: Table 3 Representative compounds; inhibition of MAdCAM binding to coated α4β7; read-out: IC50
Protocol: After washing with wash buffer, 200 μL assay buffer was added to each well and incubated for one hour at 28° C. After another wash with wash buffer, 100 μL of a MAdCAM and peptide mixture in assay buffer was added to each well and incubated for one hour at 28° C., followed by washing with wash buffer.

First: CC(C)C[C@@H]1NC(=O)[C@H]([C@@H](C)O)NC(=O)[C@H](CC(=O)O)NC(=O)[C@H](CO)NC(=O)[C@H](CCCNC(=N)N)N(C)C(=O)c2ccccc2CSC(C)(C)[C@@H](C(=O)N[C@@H](Cc2c[nH]c3ccccc23)C(=O)N[C@H](CCC(=O)O)C(N)=O)NC1=O [compound 1]
Second: CC[C@H](C)[C@@H]1NC(=O)[C@H]([C@@H](C)O)NC(=O)[C@H](CC(=O)O)NC(=O)[C@H](CO)NC(=O)[C@H](CCCNC(=N)N)NC(=O)[C@@H]2CSCc3cc(cc(c3)OCCCCCCO/N=C/C(=O)N[C@@H](C)C(=O)N2)CSC[C@@H](C(N)=O)NC1=O [compound 90, TSL6- SACRSDTLC] (ACRSDTIC-NH2; linker N-2-8 via X3)
The pIC50 of the first is 4.42 log units higher: 8.52 for the first, 4.10 for the second.

First: CCCC[C@@H]1NC(=O)[C@@H]2CCCN2C(=O)[C@@H]2CSCc3cc(cc(c3)OCCCCCCC(=O)NCC(=O)N[C@@H](C)C(=O)N2)CSC[C@@H](C(N)=O)NC(=O)[C@H](CCC(=O)O)NC(=O)[C@H](CCC(N)=O)NC(=O)[C@H](Cc2c[nH]c3ccccc23)NC(=O)[C@H](C(C)C)NC(=O)[C@H](CC(=O)O)NC1=O (stereo in doubt) [compound 33, TSLC7- GACP{Nle} DVWQEC]
Second: CCCC[C@@H]1NC(=O)[C@@H]2CCCN2C(=O)[C@@H]2CSCc3cc(cc(c3)OCCCCCCC(=O)NCC(=O)N[C@@H](CCCCN)C(=O)N2)CSC[C@@H](C(N)=O)NC(=O)[C@H](CCC(=O)O)NC(=O)[C@H](CCC(N)=O)NC(=O)[C@H](Cc2c[nH]c3ccccc23)NC(=O)[C@H](CC2CCC2)NC(=O)[C@H](CC(=O)O)NC1=O [compound 45, TSLC7-GKCP{Nle}D {CbA}WQEC] (GKCP[Nle]D[Cba]WQEC-NH2; linker N-3-11 via X5)
The pIC50 of the first is 0.34 log units higher: 6.13 for the first, 5.79 for the second.

Going from `CCCC[C@@H]1NC(=O)[C@@H]2CCCN2C(=O)[C@@H]2CSCc3cc(cc(c3)OCCCCCCO/N=C/C(=O)N[C@@H](CCCNC(=N)N)C(=O)N2)CSC[C@@H](C(N)=O)NC(=O)[C@H](CCCCN)NC(=O)[C@H](C(C)C)NC(=O)[C@H](Cc2c[nH]c3ccccc23)NC(=O)[C@H]([C@@H](C)CC)NC(=O)[C@H](CC(=O)O)NC1=O` [compound 27, TSL6- SRCP{Nle} DIWVKC] (RCP[Nle]DIWVKC-NH2; linker N-2-10 via X3) to `CC(C)C[C@@H]1NC(=O)[C@H](C)NC(=O)[C@@H]2CSCc3cc(cc(c3)OCCCCCCO/N=C/C(=O)N[C@@H](CCCCN)C(=O)N2)CSC[C@@H](C(N)=O)NC(=O)[C@H](CO)NC(=O)[C@@H]2CCCN2C(=O)[C@H](C(C)C)NC(=O)[C@H](CC(=O)O)NC1=O` [compound 59, TSL6- SKCALDVPSC] (KCALDVPSC-NH2; linker N-2-9 via X3), the pIC50 falls from 6.21 to 5.40 (0.81 log units).

Going from `C[C@@H](O)[C@@H]1NC(=O)[C@H](Cc2ccccc2)NC(=O)[C@H](CCCCN)NC(=O)[C@H](CC(=O)O)NC(=O)[C@H](Cc2cnc[nH]2)NC(=O)[C@@H]2CSCc3cc(cc(c3)OCCCCCCO/N=C/C(=O)N[C@@H](CO)C(=O)N2)CSC[C@@H](C(N)=O)NC(=O)[C@H](CCC(=O)O)NC1=O` [compound 60, TSL6- SDCHDKFTEC] (SCHDKFTEC-NH2; linker N-2-9 via X3) to `C[C@@H]1NC(=O)/C=N/OCCCCCCOc2cc3cc(c2)CSC[C@H](NC1=O)C(=O)N[C@@H](Cc1ccc(O)cc1)C(=O)N1CCC[C@H]1C(=O)N[C@@H](CC(=O)O)C(=O)N[C@@H]([C@@H](C)O)C(=O)N[C@@H](Cc1ccc(O)cc1)C(=O)N[C@@H](Cc1cnc[nH]1)C(=O)N[C@H](C(N)=O)CSC3` [compound 93, TSL6- SACYPDTYHC] (ACYPDTYHC-NH2; linker N-2-9 via X3), the pIC50 falls from 5.27 to 3.95 (1.32 log units). The first is the more potent here.

First: C[C@@H](O)[C@@H]1NC(=O)[C@H](CC(=O)O)NC(=O)[C@@H]2CCCN2C(=O)[C@H](Cc2ccc(O)cc2)NC(=O)[C@@H]2CSCc3cc(cc(c3)OCCCC/C=C/O/N=C/C(=O)N[C@@H](CC(N)=O)C(=O)N2)CSC[C@@H](C(N)=O)NC(=O)[C@H](Cc2cnc[nH]2)NC(=O)[C@H](Cc2ccc(O)cc2)NC1=O [compound 89, TSL6- SNCYPDTYHC] (NCYPDTYHC-NH2; linker N-2-9 via X8)
Second: N=C(N)NCCC[C@H]1CNC(=O)CNC(=O)[C@H](Cc2ccc(O)cc2)NC(=O)[C@H](Cc2c[nH]c3ccccc23)NC(=O)[C@H](Cc2c[nH]cn2)NC(=O)[C@@H]2CSCc3cc(cc(c3)OCCCCCCO/N=C/C(=O)N[C@@H](CCC(N)=O)C(=O)N2)CSC[C@@H](C(N)=O)NC(=O)[C@@H](CO)NC1=O [compound 111, TSL6- SQCHWYGRSC] (QCHWYG[X4][dS]C-NH2; linker N-2-9 via X3)
The pIC50 of the first is higher: 4.10 for the first, < 3.30 for the second. The first is the more potent here.

Going from `CC[C@H](C)[C@@H]1NC(=O)[C@H](CC(=O)O)NC(=O)[C@H](CCSC)NC(=O)[C@@H]2CCCN2C(=O)[C@@H](NC(=O)[C@H](CCCNC(=N)N)NC(=O)[C@H](CO)NC(C)=O)CSSC[C@@H](C(=O)N[C@@H](CCCCNC(=O)CCOCCOCCOCCOCCOCCC(=O)NCCCC[C@H](NC(=O)[C@@H]2CSSC[C@H](NC(=O)[C@H](CCCNC(=N)N)NC(=O)[C@H](CO)NC(C)=O)C(=O)N3CCC[C@H]3C(=O)N[C@@H](CCSC)C(=O)N[C@@H](CC(=O)O)C(=O)N[C@@H]([C@@H](C)CC)C(=O)N[C@@H](C)C(=O)NCC(=O)N[C@@H](CCC(=O)O)C(=O)N2)C(N)=O)C(N)=O)NC(=O)[C@H](CCC(=O)O)NC(=O)CNC(=O)[C@H](C)NC1=O` [compound 49] (I: Ac-SRCPMDIAGECK-NH2 / II: Ac-SRCPMDIAGECK-NH2; disulfide I:3-I:11, II:3-II:11; linker I:12-II:12 via CO(CH2CH2O)5CH2CH2CO) to `CC(C)C[C@@H]1NC(=O)[C@@H]2CCCN2C(=O)[C@@H]2CSCc3cc(cc(c3)OCCCCCCO/N=C/C(=O)N[C@@H](CCCCN)C(=O)N2)CSC[C@@H](C(N)=O)NC(=O)[C@H](CCC(=O)O)NC(=O)[C@H](CCC(N)=O)NC(=O)[C@@H]2CCCN2C(=O)[C@H]([C@@H](C)O)NC(=O)[C@H](CC(=O)O)NC1=O` [compound 26, TSL6- SKCPLDTPQEC] (KCPLDTPQEC-NH2; linker N-2-10 via X3), the pIC50 rises from 5.76 to 6.22 (0.46 log units). The second is the more potent here.

`CC(C)C[C@@H]1NC(=O)[C@@H]2CCCN2C(=O)[C@@H]2CSCc3cc(cc(c3)OCCCCCCO/N=C/C(=O)N[C@@H](CCCCN)C(=O)N2)CSC[C@@H](C(N)=O)NC(=O)[C@H](CO)NC(=O)[C@@H]2CCCN2C(=O)[C@H](C(C)C)NC(=O)[C@H](C)NC1=O` [compound 81, TSL6- SKCPLAVPSC] (KCPLAVPSC-NH2; linker N-2-9 via X3) gave a pIC50 of 4.25.

Same assay, conditions: competition ELISA, 4 μg/mL α4β7 coated, MAdCAM and peptide mixture, 28° C.; read-out: IC50

Going from `CC[C@H](C)[C@@H]1NC(=O)C=NOCCCCCCOc2cc3cc(c2)CSC[C@H](NC1=O)C(=O)N[C@@H](CCCNC(=N)N)C(=O)N[C@@H]([C@@H](C)O)C(=O)N[C@@H](CC(=O)O)C(=O)N[C@@H](C(C)C)C(=O)N1CCC[C@H]1C(=O)N[C@@H]([C@@H](C)CC)C(=O)N[C@@H](CC(=O)O)C(=O)N[C@H](C(=O)O)CSC3` [SEQ ID NO: 98] (ICRTDVPIDC-OH; linker N-2-10 via X1) to `CC(C)C[C@@H]1NC(=O)[C@@H]2CCCN2C(=O)[C@@H]2CSCc3cc(cc(c3)OCCCCCCON=CC(=O)N[C@@H](CCCCN)C(=O)N2)CSC[C@@H](C(=O)O)NC(=O)[C@H](CO)NC(=O)[C@@H]2CCCN2C(=O)[C@H](C(C)C)NC(=O)[C@H](C)NC1=O` [SEQ ID NO: 56] (KCPLAVPSC-OH; linker N-2-9 via X1), the pIC50 falls from 4.84 to 4.25 (0.59 log units).

With `N=C(N)NCCC[C@@H]1NC(=O)CNC(=O)[C@H](Cc2ccc(O)cc2)NC(=O)[C@H](Cc2c[nH]c3ccccc23)NC(=O)[C@H](Cc2c[nH]cn2)NC(=O)[C@@H]2CSCc3cc(cc(c3)OCCCCCCON=CC(=O)N[C@@H](CCC(N)=O)C(=O)N2)CSC[C@@H](C(=O)O)NC(=O)[C@H](CO)NC1=O` [SEQ ID NO: 19] (QCHWYGRSC-OH; linker N-2-9 via X1) the pIC50 was < 3.30.
